{
  "source": "patent US10202361B2",
  "about": "“Pyridazinones as herbicides” (E I DU PONT DE NEMOURS AND COMPANY, priority 2014, dated 2019)",
  "format_in_all_cases": "in vivo",
  "key": {"[1]": {"system": "galium (catchweed bedstraw, Galium aparine)", "assay": "Test C pre-/postemergence greenhouse herbicide test", "settings": "Galium, read-out: Plant response rating; for pest or weed control at 31 g/ha: 31 g ai/ha; for pest or weed control at 62 g/ha: 62 g ai/ha; for pest or weed control at 125 g/ha: 125 g ai/ha; for pest or weed control at 250 g/ha: 250 g ai/ha", "text": "Seeds of plant species selected from blackgrass (Alopecurus myosuroides), bromegrass, downy (downy bromegrass, Bromus tectorum), foxtail, green (green foxtail, Setaria viridis), ryegrass, Italian (Italian ryegrass, Lolium multiflorum), wheat (winter wheat, Triticum aestivum), oat, wild (wild oat, Avena fatua), galium (catchweed bedstraw, Galium aparine), bermudagrass (Cynodon dactylon), surinam grass (Brachiaria decumbens), cocklebur (common cocklebur, Xanthium strumarium), corn (Zea mays), crabgrass, large (large crabgrass, Digitaria sanguinalis), cupgrass, woolly (woolly cupgrass, Eriochloa villosa), foxtail, giant (giant foxtail, Setaria faberii), goosegrass (Eleusine indica), johnsongrass (Sorghum halepense), kochia (Kochia scoparia), lambsquarters (Chenopodium album), morningglory (Ipomoea coccinea), nightshade (eastern black nightshade, Solanum ptycanthum), nutsedge, yellow (yellow nutsedge, Cyperus esculentus), pigweed (Amaranthus retroflexus), ragweed (common ragweed, Ambrosia elatior), soybean (Glycine max), sunflower (common oilseed sunflower, Helianthus annuus), Russian thistle (Salsola kali), barnyardgrass (Echinochloa crus-galli), oilseed rape (Brassica napus), waterhemp (common waterhemp, Amaranthus rudis), and velvetleaf (Abutilon theophrasti) were planted into a blend of loam soil and sand and treated preemergence with test chemicals formulated in a non-phytotoxic solvent mixture which included a surfactant.\nAt the same time, plants selected from these crop and weed species and also barley (winter barley, Hordeum vulgare), canarygrass (Phalaris minor), windgrass (Apera spica-venti), deadnettle (henbit deadnettle, Lamium amplexicaule), and chickweed (common chickweed, Stellaria media) were planted in pots containing Redi-Earth® planting medium (Scotts Company, 14111 Scottslawn Road, Marysville, Ohio 43041) comprising spaghnum peat moss, vermiculite, wetting agent and starter nutrients and treated with postemergence applications of test chemicals formulated in the same manner. Plants ranged in height from 2 to 18 cm (1- to 4-leaf stage) for postemergence treatments. Treated plants and controls were maintained in a greenhouse for 13 to 15 d, after which time all species were compared to controls and visually evaluated. Plant response ratings, summarized in Table C, are based on a scale of 0 to 100 where 0 is no effect and 100 is complete control. A dash (-) response means no test result."}, "[2]": {"system": "foxtail, giant (giant foxtail, Setaria faberii)", "assay": "Test A pre-/postemergence greenhouse herbicide test", "settings": "Setaria faberi, 240 h, 0 to 100 scale (0 no effect, 100 complete control), approx. 10 d, read-out: Plant response rating, Foxtail, Giant; for pest or weed control at 125 g/ha: 125 g ai/ha; for pest or weed control at 500 g/ha: 500 g ai/ha", "how_it_was_run": "(§1)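 Injury was scored visually on a 0 to 100 scale, where 0 meant no effect and 100 complete control, relative to untreated plants after about 10 d in the greenhouse. Preemergence treatment was a directed soil spray on seeded loam–sand; postemergence spray went onto one- to two-leaf plants.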"}, "[3]": {"system": "morningglory (Ipomoea spp.)", "assay": "Test A pre-/postemergence greenhouse herbicide test", "settings": "Ipomoea, 240 h, 0 to 100 scale (0 no effect, 100 complete control), approx. 10 d, read-out: Plant response rating, Morningglory; for pest or weed control at 125 g/ha: 125 g ai/ha; for pest or weed control at 500 g/ha: 500 g ai/ha", "how_it_was_run": "as §1"}, "[4]": {"system": "pigweed (Amaranthus retroflexus)", "assay": "Test A pre-/postemergence greenhouse herbicide test", "settings": "Amaranthus retroflexus, 240 h, 0 to 100 scale (0 no effect, 100 complete control), approx. 10 d, read-out: Plant response rating, Pigweed; for pest or weed control at 125 g/ha: 125 g ai/ha; for pest or weed control at 500 g/ha: 500 g ai/ha", "how_it_was_run": "as §1"}, "[5]": {"system": "wheat (Triticum aestivum)", "assay": "Test A pre-/postemergence greenhouse herbicide test", "settings": "Triticum aestivum, 240 h, 0 to 100 scale (0 no effect, 100 complete control), approx. 10 d, read-out: Plant response rating, Wheat; for plant injury at 125 g/ha: 125 g ai/ha; for plant injury at 500 g/ha: 500 g ai/ha", "how_it_was_run": "as §1"}, "[6]": {"system": "corn (Zea mays)", "assay": "Test A pre-/postemergence greenhouse herbicide test", "settings": "Zea mays, 240 h, 0 to 100 scale (0 no effect, 100 complete control), approx. 10 d; for Corn plant response rating (crop injury, 0 = no effect, 100 = complete kill) at 125 g/ha: 125 g ai/ha; for Corn plant response rating (crop injury, 0 = no effect, 100 = complete kill) at 500 g/ha: 500 g ai/ha", "how_it_was_run": "as §1"}, "[7]": {"system": "velvetleaf (Abutilon theophrasti)", "assay": "Test A pre-/postemergence greenhouse herbicide test", "settings": "Abutilon theophrasti, 240 h, 0 to 100 scale (0 no effect, 100 complete control), approx. 10 d, read-out: Plant response rating, Velvetleaf; for pest or weed control at 125 g/ha: 125 g ai/ha; for pest or weed control at 500 g/ha: 500 g ai/ha", "how_it_was_run": "as §1"}, "[8]": {"system": "barnyardgrass (Echinochloa crus-galli)", "assay": "Test A pre-/postemergence greenhouse herbicide test", "settings": "Echinochloa crus-galli, 240 h, 0 to 100 scale (0 no effect, 100 complete control), approx. 10 d, read-out: Plant response rating, Barnyardgrass; for pest or weed control at 125 g/ha: 125 g ai/ha; for pest or weed control at 500 g/ha: 500 g ai/ha", "how_it_was_run": "as §1"}, "[9]": {"system": "crabgrass, Large (large crabgrass, Digitaria sanguinalis)", "assay": "Test A pre-/postemergence greenhouse herbicide test", "settings": "Digitaria sanguinalis, 240 h, 0 to 100 scale (0 no effect, 100 complete control), approx. 10 d, read-out: Plant response rating, Crabgrass, Large; for pest or weed control at 125 g/ha: 125 g ai/ha; for pest or weed control at 500 g/ha: 500 g ai/ha", "how_it_was_run": "as §1"}},
  "note": "Like-named read-outs stand apart in the source and are kept apart here.",
  "data": [
    {"smiles": "Cc1cc(=O)n(-c2ccc(F)cc2)nc1Oc1ccnc(C(F)(F)F)c1", "note": "[Compound 14, 2-(4-fluorophenyl)-5-methyl-6-[[2-(trifluoromethyl)-4-pyridinyl]oxy]-3 (2H)-pyridazinone]", "values": [
      {"measurement": "pest or weed control at 31 g/ha", "setting": "[1]; post-emergence, Postemergence", "result": 50, "unit": "%"},
      {"measurement": "pest or weed control at 62 g/ha", "setting": "[1]; post-emergence, Postemergence", "result": 55, "unit": "%"},
      {"measurement": "pest or weed control at 125 g/ha", "setting": "[1]; post-emergence, Postemergence", "result": 55, "unit": "%"},
      {"measurement": "pest or weed control at 250 g/ha", "setting": "[1]; post-emergence, Postemergence", "result": 75, "unit": "%"},
      {"measurement": "pest or weed control at 31 g/ha", "setting": "[1]; pre-emergence, Preemergence", "result": 60, "unit": "%"},
      {"measurement": "pest or weed control at 62 g/ha", "setting": "[1]; pre-emergence, Preemergence", "result": 98, "unit": "%"},
      {"measurement": "pest or weed control at 125 g/ha", "setting": "[1]; pre-emergence, Preemergence", "result": 100, "unit": "%"},
      {"measurement": "pest or weed control at 250 g/ha", "setting": "[1]; pre-emergence, Preemergence", "result": 100, "unit": "%"},
      {"measurement": "pest or weed control at 125 g/ha", "setting": "[2]; post-emergence, Postemergence", "result": 90, "unit": "%"},
      {"measurement": "pest or weed control at 500 g/ha", "setting": "[2]; post-emergence, Postemergence", "result": 90, "unit": "%"},
      {"measurement": "pest or weed control at 125 g/ha", "setting": "[2]; pre-emergence, Preemergence", "result": 90, "unit": "%"},
      {"measurement": "pest or weed control at 500 g/ha", "setting": "[2]; pre-emergence, Preemergence", "result": 90, "unit": "%"},
      {"measurement": "pest or weed control at 125 g/ha", "setting": "[3]; post-emergence, Postemergence", "result": 90, "unit": "%"},
      {"measurement": "pest or weed control at 500 g/ha", "setting": "[3]; post-emergence, Postemergence", "result": 100, "unit": "%"},
      {"measurement": "pest or weed control at 125 g/ha", "setting": "[3]; pre-emergence, Preemergence", "result": 80, "unit": "%"},
      {"measurement": "pest or weed control at 500 g/ha", "setting": "[3]; pre-emergence, Preemergence", "result": 100, "unit": "%"},
      {"measurement": "pest or weed control at 125 g/ha", "setting": "[4]; post-emergence, Postemergence", "result": 100, "unit": "%"},
      {"measurement": "pest or weed control at 500 g/ha", "setting": "[4]; post-emergence, Postemergence", "result": 100, "unit": "%"},
      {"measurement": "pest or weed control at 125 g/ha", "setting": "[4]; pre-emergence, Preemergence", "result": 100, "unit": "%"},
      {"measurement": "pest or weed control at 500 g/ha", "setting": "[4]; pre-emergence, Preemergence", "result": 100, "unit": "%"},
      {"measurement": "plant injury at 125 g/ha", "setting": "[5]; post-emergence, Postemergence", "result": 40, "unit": "%"},
      {"measurement": "plant injury at 500 g/ha", "setting": "[5]; post-emergence, Postemergence", "result": 70, "unit": "%"},
      {"measurement": "plant injury at 125 g/ha", "setting": "[5]; pre-emergence, Preemergence", "result": 10, "unit": "%"},
      {"measurement": "plant injury at 500 g/ha", "setting": "[5]; pre-emergence, Preemergence", "result": 60, "unit": "%"},
      {"measurement": "Corn plant response rating (crop injury, 0 = no effect, 100 = complete kill) at 125 g/ha", "setting": "[6]; post-emergence, Postemergence", "result": 50, "unit": "%"},
      {"measurement": "Corn plant response rating (crop injury, 0 = no effect, 100 = complete kill) at 500 g/ha", "setting": "[6]; post-emergence, Postemergence", "result": 70, "unit": "%"},
      {"measurement": "Corn plant response rating (crop injury, 0 = no effect, 100 = complete kill) at 125 g/ha", "setting": "[6]; pre-emergence, Preemergence", "result": 0, "unit": "%"},
      {"measurement": "Corn plant response rating (crop injury, 0 = no effect, 100 = complete kill) at 500 g/ha", "setting": "[6]; pre-emergence, Preemergence", "result": 50, "unit": "%"},
      {"measurement": "pest or weed control at 125 g/ha", "setting": "[7]; post-emergence, Postemergence", "result": 80, "unit": "%"},
      {"measurement": "pest or weed control at 500 g/ha", "setting": "[7]; post-emergence, Postemergence", "result": 90, "unit": "%"},
      {"measurement": "pest or weed control at 125 g/ha", "setting": "[7]; pre-emergence, Preemergence", "result": 30, "unit": "%"},
      {"measurement": "pest or weed control at 500 g/ha", "setting": "[7]; pre-emergence, Preemergence", "result": 100, "unit": "%"},
      {"measurement": "pest or weed control at 125 g/ha", "setting": "[8]; post-emergence, Postemergence", "result": 80, "unit": "%"},
      {"measurement": "pest or weed control at 500 g/ha", "setting": "[8]; post-emergence, Postemergence", "result": 90, "unit": "%"},
      {"measurement": "pest or weed control at 125 g/ha", "setting": "[8]; pre-emergence, Preemergence", "result": 70, "unit": "%"},
      {"measurement": "pest or weed control at 500 g/ha", "setting": "[8]; pre-emergence, Preemergence", "result": 100, "unit": "%"},
      {"measurement": "pest or weed control at 125 g/ha", "setting": "[9]; post-emergence, Postemergence", "result": 90, "unit": "%"},
      {"measurement": "pest or weed control at 500 g/ha", "setting": "[9]; post-emergence, Postemergence", "result": 90, "unit": "%"},
      {"measurement": "pest or weed control at 125 g/ha", "setting": "[9]; pre-emergence, Preemergence", "result": 90, "unit": "%"},
      {"measurement": "pest or weed control at 500 g/ha", "setting": "[9]; pre-emergence, Preemergence", "result": 90, "unit": "%"}
    ]}
  ]
}
